Data: PubChem BioAssay AID248 (DTP/NCI, 2004)
Values joined by “and” are separate entries in the source; they are usually repeats but may differ in a detail not shown here. Equal entries are not always repeated. Toxic doses and inconclusive results are not listed. Rule as the data show it: active = T/C of 150% or more; inactive = T/C below 125%.

System: L1210 leukemia ip in BDF1 mice, survival T/C
Test: NCI In Vivo Anticancer Drug Screen. Data for tumor model L1210 Leukemia (intraperitoneal) in B6D2F1 (BDF1) mice
Settings: endpoint: mean survival time, higher = longer survival
Summary of the method: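 In this screen, tumor-bearing mice given compound are compared to those given vehicle, and their survival values are reported as a treated-to-control quotient.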

[1] = dose: 100.0 mg/kg/injection, schedule: Q01DX009 (ip), vehicle: saline with Tween-80
[2] = dose: 100.0 mg/kg/injection, schedule: Q04DX003 (ip), vehicle: saline
[3] = dose: 200.0 mg/kg/injection, schedule: Q04DX003 (ip), vehicle: saline
[4] = dose: 25.0 mg/kg/injection, schedule: Q01DX009 (ip), vehicle: saline with Tween-80
[5] = dose: 50.0 mg/kg/injection, schedule: Q01DX009 (ip), vehicle: saline with Tween-80
[6] = dose: 100.0 mg/kg/injection, schedule: Q01DX001 (ip), vehicle: Klucel (hydroxypropylcellulose) (HPC)
[7] = dose: 200.0 mg/kg/injection, schedule: Q01DX001 (ip), vehicle: Klucel (hydroxypropylcellulose) (HPC)
[8] = dose: 100.0 mg/kg/injection, schedule: Q01DX001 (ip), vehicle: saline
[9] = dose: 200.0 mg/kg/injection, schedule: Q01DX001 (ip), vehicle: saline
[10] = dose: 100.0 mg/kg/injection, schedule: Q01DX001 (ip), vehicle: saline with Tween-80
[11] = dose: 200.0 mg/kg/injection, schedule: Q01DX001 (ip), vehicle: saline with Tween-80

Measured: T/C

COn1c(=O)[nH]c2ccccc2c1=O
inactive: [1] 94 % of control | dose: 200.0 mg/kg/injection, schedule: Q01DX009 (ip), vehicle: saline with Tween-80 91 % of control | dose: 400.0 mg/kg/injection, schedule: Q01DX009 (ip), vehicle: saline with Tween-80 97 % of control

O=C(Nc1ccccc1)C(Br)c1ccccc1 (stereo unspecified)
inactive: [2] 91 % of control | [3] 90 % of control

O=C(Cc1ccccc1)NCc1ccccc1Cl
inactive: [4] 103 % of control | [5] 94 % of control | [1] 96 % of control and 87 % of control | dose: 100.0 mg/kg/injection, schedule: Q04DX002 (ip), vehicle: saline with Tween-80 96 % of control | dose: 150.0 mg/kg/injection, schedule: Q01DX009 (ip), vehicle: saline with Tween-80 89 % of control | dose: 200.0 mg/kg/injection, schedule: Q04DX002 (ip), vehicle: saline with Tween-80 107 % of control | dose: 225.0 mg/kg/injection, schedule: Q01DX009 (ip), vehicle: saline with Tween-80 94 % of control | dose: 335.0 mg/kg/injection, schedule: Q01DX009 (ip), vehicle: saline with Tween-80 91 % of control | dose: 400.0 mg/kg/injection, schedule: Q04DX002 (ip), vehicle: saline with Tween-80 111 % of control

Cc1nc(N)[nH]c(=O)c1CCCNC(=O)CCl (tested in a mixture with another compound)
inactive: dose: 50.0 mg/kg/injection, schedule: Q01DX001 (ip), vehicle: Klucel (hydroxypropylcellulose) (HPC) 114 % of control | [6] 108 % of control | [7] 100 % of control

O=C(CN1C(=O)C2CCCCC2C1=O)N1CC1 (stereo unspecified)
inactive: dose: 100.0 mg/kg/injection, schedule: Q01DX001 (ip), vehicle: carboxymethylcellulose (CMC) 110 % of control | dose: 200.0 mg/kg/injection, schedule: Q01DX001 (ip), vehicle: carboxymethylcellulose (CMC) 103 % of control

c1ccc2c(c1)[nH]c1c[n+]3c(c[n+]12)[nH]c1ccccc13
inactive: dose: 50.0 mg/kg/injection, schedule: Q01DX001 (ip), vehicle: saline 107 % of control | [8] 98 % of control | [9] 113 % of control

Nc1nc2ccc(CNc3ccc(C(=O)NC(CC(=O)O)C(=O)O)cc3)cc2c(=O)[nH]1 (stereo unspecified)
inactive: dose: 18.7 mg/kg/injection, schedule: Q01DX001 (ip), vehicle: saline with Tween-80 102 % of control | dose: 37.5 mg/kg/injection, schedule: Q01DX001 (ip), vehicle: saline with Tween-80 113 % of control | dose: 75.0 mg/kg/injection, schedule: Q01DX001 (ip), vehicle: saline with Tween-80 115 % of control | [10] 109 % of control | [11] 109 % of control

c1ccc(-c2cc3ccccc3[nH]2)cc1
inactive: [6] 98 % of control | [7] 96 % of control | dose: 200.0 mg/kg/injection, schedule: Q01DX009 (ip), vehicle: Klucel (hydroxypropylcellulose) (HPC) 94 % of control | dose: 400.0 mg/kg/injection, schedule: Q01DX001 (ip), vehicle: Klucel (hydroxypropylcellulose) (HPC) 102 % of control

O=c1oc(-c2ccccc2)ccc1-c1ccccc1
inactive: dose: 100.0 mg/kg/injection, schedule: Q04DX003 (ip), vehicle: Klucel (hydroxypropylcellulose) (HPC) 98 % of control | dose: 200.0 mg/kg/injection, schedule: Q04DX003 (ip), vehicle: Klucel (hydroxypropylcellulose) (HPC) 100 % of control | dose: 400.0 mg/kg/injection, schedule: Q04DX003 (ip), vehicle: Klucel (hydroxypropylcellulose) (HPC) 96 % of control

Cn1cc2ccccc2n1
inactive: dose: 50.0 mg/kg/injection, schedule: Q01DX001 (ip), vehicle: saline with Tween-80 102 % of control | [10] 100 % of control | [11] 102 % of control

CC(=O)OC/C=C(\C)CCC1OC1(C)C (stereo unspecified)
inactive: [8] 120 % of control | dose: 100.0 mg/kg/injection, schedule: Q04DX003 (ip), vehicle: water 102 % of control | [9] 108 % of control | dose: 200.0 mg/kg/injection, schedule: Q04DX003 (ip), vehicle: water 112 % of control | dose: 400.0 mg/kg/injection, schedule: Q01DX001 (ip), vehicle: saline 114 % of control | dose: 400.0 mg/kg/injection, schedule: Q04DX003 (ip), vehicle: water 101 % of control

CC(C)N1CCOC1c1ccccc1 (stereo unspecified)
inactive: dose: 50.0 mg/kg/injection, schedule: Q01DX009 (ip), vehicle: saline sonified 105 % of control | dose: 100.0 mg/kg/injection, schedule: Q01DX009 (ip), vehicle: saline sonified 105 % of control | [2] 100 % of control | dose: 200.0 mg/kg/injection, schedule: Q01DX009 (ip), vehicle: saline sonified 100 % of control | [3] 96 % of control

COC(=O)c1ccc(C(=O)OC)o1
inactive: dose: 100.0 mg/kg/injection, schedule: Q04DX002 (ip), vehicle: Klucel (hydroxypropylcellulose) (HPC) 113 % of control | dose: 200.0 mg/kg/injection, schedule: Q04DX002 (ip), vehicle: Klucel (hydroxypropylcellulose) (HPC) 98 % of control | dose: 400.0 mg/kg/injection, schedule: Q04DX002 (ip), vehicle: Klucel (hydroxypropylcellulose) (HPC) 106 % of control

NCCS(=O)c1ccccc1 (stereo unspecified)
inactive: [2] 96 % of control | [3] 96 % of control | dose: 400.0 mg/kg/injection, schedule: Q04DX003 (ip), vehicle: saline 113 % of control

CC1(C)N=C(N)N=C(N)N1c1ccc(CCCCc2ccccc2Cl)cc1
inactive: dose: 12.5 mg/kg/injection, schedule: Q01DX001 (ip), vehicle: Klucel (hydroxypropylcellulose) (HPC) 95 % of control | dose: 25.0 mg/kg/injection, schedule: Q01DX001 (ip), vehicle: Klucel (hydroxypropylcellulose) (HPC) 98 % of control

COC(=O)CC1(O)C=CC(=O)C=C1
inactive: dose: 6.25 mg/kg/injection, schedule: Q01DX009 (ip), vehicle: Klucel (hydroxypropylcellulose) (HPC) 95 % of control | dose: 12.5 mg/kg/injection, schedule: Q01DX009 (ip), vehicle: Klucel (hydroxypropylcellulose) (HPC) 92 % of control | dose: 25.0 mg/kg/injection, schedule: Q01DX009 (ip), vehicle: Klucel (hydroxypropylcellulose) (HPC) 108 % of control | dose: 25.0 mg/kg/injection, schedule: Q01DX009 (ip), vehicle: saline 100 % of control

CC(C)=CCC/C(C)=C\C1N(C)CCCN1C
inactive: [4] 92 % of control | dose: 25.0 mg/kg/injection, schedule: Q04DX003 (ip), vehicle: saline with Tween-80 98 % of control | [5] 88 % of control | dose: 50.0 mg/kg/injection, schedule: Q04DX003 (ip), vehicle: saline with Tween-80 92 % of control

Cc1cc(N(CCOS(C)(=O)=O)CCOS(C)(=O)=O)ccc1C=Nc1ccc(C(=O)O)cc1
inactive: dose: 2.5 mg/kg/injection, schedule: Q04DX003 (ip), vehicle: Klucel (hydroxypropylcellulose) (HPC) 108 % of control | dose: 5.0 mg/kg/injection, schedule: Q04DX003 (ip), vehicle: Klucel (hydroxypropylcellulose) (HPC) 113 % of control | dose: 6.6 mg/kg/injection, schedule: Q04DX003 (ip), vehicle: Klucel (hydroxypropylcellulose) (HPC) 102 % of control | dose: 10.0 mg/kg/injection, schedule: Q04DX003 (ip), vehicle: Klucel (hydroxypropylcellulose) (HPC) 103 % of control | dose: 15.0 mg/kg/injection, schedule: Q04DX003 (ip), vehicle: Klucel (hydroxypropylcellulose) (HPC) 118 % of control | dose: 20.0 mg/kg/injection, schedule: Q04DX003 (ip), vehicle: Klucel (hydroxypropylcellulose) (HPC) 113 % of control | dose: 40.0 mg/kg/injection, schedule: Q04DX003 (ip), vehicle: Klucel (hydroxypropylcellulose) (HPC) 114 % of control
